Data as given in patent publication US7442801B2, “Pyrazole compound” (Sumitomo Chemical Company, Limited, priority 2003, dated 2008).

Test system: Tetranychus urticae
Assay: Test Example 1: Controlling Rate against Tetranychus urticae on brush bean, spray
Assay type: in vivo
Conditions: 500 ppm, 30 ml sprayed on brush bean (Phaseolus vulgaris) with female adults
Procedure: Each of the present compounds (2) to (15), (17) to (33), (36) to (40) and the comparative compound described below was formulated according to Formulation Example 5, and each formulations was diluted with water so that the concentration of the present compound or the comparative compound came to 500 ppm.
About twenty female adults of Tetranychus urticae were set free on brush bean (Phaseolus vulgaris) in the primary leaf stage, which had been potted in a plastic cup for 7 days after the seeding. After 1 day, a 30 ml of the diluted formulation described-above was sprayed over the plant. On the 8th and 13th day after the application, the numbers of lived Tetranychus urticae on the leaf of brush bean plant were examined, and the Controlling Rates were calculated by the following scheme. Controlling Rate=100×{1−(a number of lived Tetranychus urticae in the treatment)/(a number of lived Tetranychus urticae in the non-treatment)}

SMILES: Cc1nn(C)c(Oc2ccc(Oc3ccc(C(F)(F)F)cc3)cc2)c1C=NOCc1ccccc1 [comparative compound]
- Controlling Rate (8th day after the application): less than 30%
- Controlling Rate (13th day after the application): less than 30%
